The text below walks through data of ChEMBL document CHEMBL4651402, “Screening of ~5500 FDA-approved drugs and clinical candidates for anti-SARS-CoV-2 activity” (2021).

A short description of one data set: in vitro. The conditions noted are these: chlorocebus sabaeus, Vero E6 (Vero C1008) cells.
For data set [1], the system named is SARS-CoV-2. Briefly: microbe, parasite or virus in culture. The conditions noted are these: Severe acute respiratory syndrome coronavirus 2, Vero C1008, 48 h.
The test system of data set [2] is SARS-CoV-2. As to the kind of experiment: microbe, parasite or virus in culture. The conditions noted are these: Severe acute respiratory syndrome coronavirus 2, Vero C1008, 48 h. In kind it is functional, organism-based, Chlorocebus sabaeus, Vero C1008.

As a reminder, the CC50 is the concentration at which the toxic effect on the cells reaches its halfway point. A lower CC50 goes with greater toxicity to the cells. As to `Nc1ccc2cc3ccc(N)cc3nc2c1` [PROFLAVINE], the 50% cytotoxic concentration (CC50) at 48 h in the data set “in vitro” (CC50) and in the data set “in vitro” (pCC50) was approximately 6.61 µM in each case. The IC50 was approximately 15 µM in the data set on SARS-CoV-2 [1], approximately 14.8 µM in the data set on SARS-CoV-2 [1] (read-out: pIC50 (converted)), more than 25.1 µM with SARS-CoV-2 [2] (read-out: IC50) and more than 25.1 µM in the data set on SARS-CoV-2 [2] (read-out: pIC50 (converted)).

For `CN(C)CC/C=C1\c2ccccc2OCc2c1oc1ccccc21`, the CC50 at 48 h is 12.2 µM in the data set “in vitro” (CC50) and 12 µM in the data set “in vitro” (pCC50). Also, the IC50 with SARS-CoV-2 [1] is 18.2 µM; in the data set with SARS-CoV-2 [1] (read-out: pIC50 (converted)), 18.2 µM; in the data set with SARS-CoV-2 [2] (read-out: IC50), more than 100 µM; with SARS-CoV-2 [2] (read-out: pIC50 (converted)), more than 100 µM.

As to `CCCCCCC(C)(C)c1cc(O)c2c(c1)OC(C)(C)[C@@H]1CC=C(C(=O)O)C[C@@H]21` [LENABASUM], the CC50 at 48 h in “in vitro” (CC50) and in “in vitro” (pCC50) was approximately 21.4 µM each time. Further, the IC50 in the data set with SARS-CoV-2 [1], in the data set on SARS-CoV-2 [1] (read-out: pIC50 (converted)), in the data set on SARS-CoV-2 [2] (read-out: IC50) and in the data set on SARS-CoV-2 [2] (read-out: pIC50 (converted)) was more than 100 µM in each case.

As to `CN(C)CCCN1c2ccccc2Sc2ccccc21` [PROMAZINE], the cytotoxic concentration (CC50) at 48 h in “in vitro” (CC50) and in the data set “in vitro” (pCC50) was 25.7 µM throughout. The IC50 was 16.2 µM in the data set on SARS-CoV-2 [1], 16.2 µM in the data set with SARS-CoV-2 [1] (read-out: pIC50 (converted)), more than 100 µM in the data set on SARS-CoV-2 [2] (read-out: IC50) and more than 100 µM in the data set on SARS-CoV-2 [2] (read-out: pIC50 (converted)).

As to `COc1ccc2c(c1)N(CCCN(C)C)c1ccccc1S2` [METHOXYPROMAZINE], the CC50 at 48 h in the data set “in vitro” (CC50) and in “in vitro” (pCC50) was 14.1 µM in each case. The IC50 was more than 20 µM with SARS-CoV-2 [1], more than 20 µM in the data set on SARS-CoV-2 [1] (read-out: pIC50 (converted)), more than 100 µM in the data set on SARS-CoV-2 [2] (read-out: IC50) and more than 100 µM in the data set with SARS-CoV-2 [2] (read-out: pIC50 (converted)).

In the case of `COC(=O)C1C2CC3c4[nH]c5ccccc5c4CCN3CC2CC(OC(=O)c2cc(OC)c(OC)c(OC)c2)C1OC` (stereo not given), the CC50 at 48 h in “in vitro” (CC50) and in the data set “in vitro” (pCC50) was 11.5 µM throughout. The IC50 in the data set on SARS-CoV-2 [1] is more than 20 µM; with SARS-CoV-2 [1] (read-out: pIC50 (converted)) it was more than 20 µM; in the data set on SARS-CoV-2 [2] (read-out: IC50) it was more than 25.1 µM; in the data set on SARS-CoV-2 [2] (read-out: pIC50 (converted)), more than 25.1 µM.

With `CCN(CC)CCCNc1cc(OC)cc2cccnc12`, the CC50 at 48 h in the data set “in vitro” (CC50) and in “in vitro” (pCC50) was more than 100 µM throughout. In addition, the IC50 in the data set with SARS-CoV-2 [1] is 24.6 µM; in the data set with SARS-CoV-2 [1] (read-out: pIC50 (converted)), 24.5 µM; in the data set with SARS-CoV-2 [2] (read-out: IC50), more than 100 µM; in the data set on SARS-CoV-2 [2] (read-out: pIC50 (converted)), more than 100 µM.

Regarding `OC(CCCN1CCc2c(c3cc(F)ccc3n2-c2ccc(F)cc2)C1)c1ccc(F)cc1` (stereo not given) [FLUTROLINE], the CC50 at 48 h in the data set “in vitro” (CC50) and in the data set “in vitro” (pCC50) was 6.92 µM in each case. Besides, the IC50 in the data set with SARS-CoV-2 [1] is 4.68 µM; in the data set with SARS-CoV-2 [1] (read-out: pIC50 (converted)) it was 4.68 µM; with SARS-CoV-2 [2] (read-out: IC50), more than 100 µM; in the data set with SARS-CoV-2 [2] (read-out: pIC50 (converted)) it was more than 100 µM.

For `CN(C)CCCn1cc(-c2ccccc2)c(-c2ccccc2)n1` [FEZOLAMINE], the half-maximal cytotoxic concentration (CC50) at 48 h in the data set “in vitro” (CC50) and in “in vitro” (pCC50) was 39.8 µM in each case. The IC50 was 14.5 µM in the data set with SARS-CoV-2 [1], 14.5 µM with SARS-CoV-2 [1] (read-out: pIC50 (converted)), more than 100 µM in the data set on SARS-CoV-2 [2] (read-out: IC50) and more than 100 µM in the data set on SARS-CoV-2 [2] (read-out: pIC50 (converted)).

Consider `C#C[C@]1(O)CCC2C3CCc4cc(OC5CCCC5)ccc4C3CCC21C` (stereo not given in full), for which the CC50 at 48 h in the data set “in vitro” (CC50) and in “in vitro” (pCC50) was 7.59 µM in each case. In addition, the IC50 is 8.71 µM in the data set on SARS-CoV-2 [1], 8.71 µM in the data set with SARS-CoV-2 [1] (read-out: pIC50 (converted)), more than 100 µM in the data set with SARS-CoV-2 [2] (read-out: IC50) and more than 100 µM with SARS-CoV-2 [2] (read-out: pIC50 (converted)).

`CCCCN(CCCC)CCC(O)c1cc2c(Cl)cc(Cl)cc2c2cc(C(F)(F)F)ccc12` (stereo not given) [HALOFANTRINE]: the cytotoxic concentration (CC50) at 48 h in the data set “in vitro” (CC50) and in the data set “in vitro” (pCC50) was 11.5 µM in each case. Besides, the IC50 with SARS-CoV-2 [1] was 9.55 µM; in the data set with SARS-CoV-2 [1] (read-out: pIC50 (converted)), 9.55 µM; with SARS-CoV-2 [2] (read-out: IC50) it was approximately 9.12 µM; with SARS-CoV-2 [2] (read-out: pIC50 (converted)), approximately 9.12 µM.

For `Cc1ccc(C(=O)N(CCCN)[C@@H](c2oc3cc(Cl)ccc3c(=O)c2Cc2ccccc2)C(C)C)cc1` [SB-743921], the CC50 at 48 h in “in vitro” (CC50) and in “in vitro” (pCC50) was 2.63 µM in each case. Also, the IC50 in the data set on SARS-CoV-2 [1], in the data set with SARS-CoV-2 [1] (read-out: pIC50 (converted)), in the data set on SARS-CoV-2 [2] (read-out: IC50) and with SARS-CoV-2 [2] (read-out: pIC50 (converted)) was more than 50.1 µM throughout.

Take `CCCCc1oc2ccc(NS(C)(=O)=O)cc2c1C(=O)c1ccc(OCCCN(CCCC)CCCC)cc1` [DRONEDARONE]: the CC50 at 48 h in the data set “in vitro” (CC50) is 3.85 µM; in “in vitro” (pCC50), 3.8 µM. For the same molecule, the IC50 with SARS-CoV-2 [1] is approximately 3.02 µM; in the data set with SARS-CoV-2 [1] (read-out: pIC50 (converted)) it was approximately 3.02 µM; in the data set on SARS-CoV-2 [2] (read-out: IC50) it was more than 100 µM; with SARS-CoV-2 [2] (read-out: pIC50 (converted)), more than 100 µM.

Consider `CN1CCC(OC(=O)C(Oc2ccc(Cl)cc2)Oc2ccc(Cl)cc2)CC1` [LIFIBRATE], for which the CC50 at 48 h in “in vitro” (CC50) and in the data set “in vitro” (pCC50) was 38 µM each time. The IC50 in the data set with SARS-CoV-2 [1], in the data set on SARS-CoV-2 [1] (read-out: pIC50 (converted)), with SARS-CoV-2 [2] (read-out: IC50) and in the data set with SARS-CoV-2 [2] (read-out: pIC50 (converted)) was more than 100 µM in each case.

As for `N#Cc1ccc2c(c1)N(CCCN1CCC(O)CC1)c1ccccc1S2` [PERICIAZINE], the 50% cytotoxic concentration (CC50) at 48 h was 12.7 µM in the data set “in vitro” (CC50) and 12.6 µM in “in vitro” (pCC50). The IC50 is more than 20 µM with SARS-CoV-2 [1], more than 20 µM in the data set with SARS-CoV-2 [1] (read-out: pIC50 (converted)), more than 100 µM in the data set with SARS-CoV-2 [2] (read-out: IC50) and more than 100 µM in the data set on SARS-CoV-2 [2] (read-out: pIC50 (converted)).
